According to the NIST ThermoML archive (doi:10.1016/j.jct.2019.03.023):
Several values for one entry are separate records, joined by “and”; a condition that tells them apart may be missing. Equal values may be shown once.

Test: molar heat capacity at constant volume
Conditions: Vacuum adiabatic calorimetry

CC(C)O [propan-2-ol]
Fluid (supercritical or subcritical phases)
Conditions	molar heat capacity at constant volume
506.89 K, Mass density=324.5 kg/m3	348.43 J/K/mol and 347.05 J/K/mol
506.89 K, Mass density=343.1 kg/m3	330.28 J/K/mol
506.97 K, Mass density=329.2 kg/m3	330.22 J/K/mol
506.98 K, Mass density=288.99 kg/m3	360.33 J/K/mol
506.98 K, Mass density=324.5 kg/m3	352.64 J/K/mol
506.98 K, Mass density=343.1 kg/m3	333.83 J/K/mol
507.07 K, Mass density=288.99 kg/m3	365.74 J/K/mol
507.07 K, Mass density=324.5 kg/m3	346.75 J/K/mol
507.08 K, Mass density=343.1 kg/m3	331.96 J/K/mol
507.11 K, Mass density=329.2 kg/m3	342.54 J/K/mol
507.17 K, Mass density=288.99 kg/m3	355.1 J/K/mol
507.17 K, Mass density=293.3 kg/m3	358.29 J/K/mol
507.17 K, Mass density=324.5 kg/m3	351.56 J/K/mol
507.17 K, Mass density=343.1 kg/m3	333.89 J/K/mol
507.2 K, Mass density=329.2 kg/m3	339.6 J/K/mol
507.26 K, Mass density=288.99 kg/m3	361.53 J/K/mol
507.26 K, Mass density=324.5 kg/m3	348.79 J/K/mol
507.26 K, Mass density=343.1 kg/m3	336.65 J/K/mol
507.3 K, Mass density=329.2 kg/m3	339.42 J/K/mol
507.35 K, Mass density=293.3 kg/m3	367 J/K/mol
507.35 K, Mass density=324.5 kg/m3	351.56 J/K/mol
507.36 K, Mass density=343.1 kg/m3	338.58 J/K/mol
507.4 K, Mass density=329.2 kg/m3	335.93 J/K/mol
507.45 K, Mass density=293.3 kg/m3	363.82 J/K/mol
507.45 K, Mass density=324.5 kg/m3	357.02 J/K/mol
507.45 K, Mass density=343.1 kg/m3	335.69 J/K/mol
507.5 K, Mass density=329.2 kg/m3	343.02 J/K/mol
507.54 K, Mass density=293.3 kg/m3	371.39 J/K/mol
507.54 K, Mass density=324.5 kg/m3	349.09 J/K/mol
507.54 K, Mass density=343.1 kg/m3	337.79 J/K/mol
507.59 K, Mass density=329.2 kg/m3	338.94 J/K/mol
507.63 K, Mass density=293.3 kg/m3	367.06 J/K/mol
507.63 K, Mass density=324.5 kg/m3	353.72 J/K/mol
507.65 K, Mass density=343.1 kg/m3	339.78 J/K/mol
507.69 K, Mass density=329.2 kg/m3	354.86 J/K/mol
507.7 K, Mass density=329.2 kg/m3	347.95 J/K/mol
507.73 K, Mass density=293.3 kg/m3	369.4 J/K/mol
507.73 K, Mass density=324.5 kg/m3	360.99 J/K/mol
507.82 K, Mass density=274 kg/m3	385.09 J/K/mol
507.82 K, Mass density=293.3 kg/m3	371.39 J/K/mol
507.82 K, Mass density=324.5 kg/m3	358.53 J/K/mol
507.82 K, Mass density=343.1 kg/m3	338.76 J/K/mol
507.89 K, Mass density=329.2 kg/m3	352.76 J/K/mol
507.91 K, Mass density=274 kg/m3	385.33 J/K/mol
507.91 K, Mass density=293.3 kg/m3	375.83 J/K/mol
507.91 K, Mass density=324.5 kg/m3	365.2 J/K/mol
507.91 K, Mass density=343.1 kg/m3	340.98 J/K/mol
507.95 K, Mass density=343.1 kg/m3	342.54 J/K/mol and 212.44 J/K/mol
508.01 K, Mass density=234.3 kg/m3	436.29 J/K/mol
508.01 K, Mass density=255.8 kg/m3	424.87 J/K/mol
508.01 K, Mass density=274 kg/m3	393.86 J/K/mol
508.01 K, Mass density=293.3 kg/m3	380.52 J/K/mol
508.01 K, Mass density=324.5 kg/m3	363.27 J/K/mol
508.01 K, Mass density=343.1 kg/m3	205.52 J/K/mol
508.04 K, Mass density=329.2 kg/m3	358.17 J/K/mol
508.1 K, Mass density=234.3 kg/m3	442.3 J/K/mol
508.1 K, Mass density=255.8 kg/m3	425.65 J/K/mol
508.1 K, Mass density=266.3 kg/m3	412.31 J/K/mol
508.1 K, Mass density=274 kg/m3	396.93 J/K/mol
508.1 K, Mass density=281.9 kg/m3	391.7 J/K/mol
508.1 K, Mass density=293.3 kg/m3	381.6 J/K/mol
508.1 K, Mass density=324.5 kg/m3	367.06 J/K/mol
508.1 K, Mass density=343.1 kg/m3	191.64 J/K/mol
508.16 K, Mass density=329.2 kg/m3	363.76 J/K/mol and 218.14 J/K/mol
508.18 K, Mass density=329.2 kg/m3	208.53 J/K/mol
508.19 K, Mass density=234.3 kg/m3	447.71 J/K/mol
508.19 K, Mass density=255.8 kg/m3	429.38 J/K/mol
508.19 K, Mass density=266.3 kg/m3	417.66 J/K/mol
508.19 K, Mass density=274 kg/m3	404.38 J/K/mol
508.19 K, Mass density=281.9 kg/m3	398.49 J/K/mol
508.19 K, Mass density=288.99 kg/m3	390.74 J/K/mol
508.19 K, Mass density=293.3 kg/m3	383.29 J/K/mol
508.19 K, Mass density=324.5 kg/m3	370.25 J/K/mol
508.19 K, Mass density=343.1 kg/m3	187.98 J/K/mol
508.28 K, Mass density=234.3 kg/m3	453.36 J/K/mol
508.28 K, Mass density=255.8 kg/m3	438.99 J/K/mol
508.28 K, Mass density=266.3 kg/m3	426.19 J/K/mol
508.28 K, Mass density=274 kg/m3	414.84 J/K/mol
508.28 K, Mass density=281.9 kg/m3	409.07 J/K/mol
508.28 K, Mass density=288.99 kg/m3	395.61 J/K/mol
508.28 K, Mass density=293.3 kg/m3	391.22 J/K/mol
508.28 K, Mass density=324.5 kg/m3	371.75 J/K/mol and 221.39 J/K/mol
508.28 K, Mass density=329.2 kg/m3	195.91 J/K/mol
508.29 K, Mass density=343.1 kg/m3	181.07 J/K/mol
508.34 K, Mass density=324.5 kg/m3	214 J/K/mol
508.37 K, Mass density=329.2 kg/m3	192.6 J/K/mol
508.38 K, Mass density=234.3 kg/m3	464.9 J/K/mol
508.38 K, Mass density=255.8 kg/m3	446.27 J/K/mol
508.38 K, Mass density=266.3 kg/m3	435.27 J/K/mol

Liquid
Conditions	molar heat capacity at constant volume [J/K/mol]
507.95 K	212.44
508.16 K	218.14
508.28 K	221.39
